Assay results from the supplement of paper PMC11061612.

Tests used:
Assay in all cases: combination Emax (second highest fraction inhibited in the dose matrix, 72 h); higher = more inhibition; extreme values may be limits of the assay
[1] = test system: CAPAN-1 (Pancreatic Carcinoma)
Method in brief: (§1)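 Cell lines grown in DMEM/F12 or RPMI with 10% FBS were plated in 1536-well plates and held 24 hours at 37°C, 5% CO2 before 72 hours of exposure to two-drug dose matrices, with DMSO typically at 0.2%. CellTiter-Glo 2.0 luminescence gave viability, which was converted to inhibition. Vehicle wells were set to 0 and blank wells to 1. Combination Emax is the second-highest inhibition in the matrix, and Bliss excess is the observed combination effect minus the expected EA + EB − EA·EB, where EA and EB are the single-agent effects.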

[2] = test system: CAL-54 (Kidney Carcinoma)
Method in brief: as §1

[3] = test system: RKO (Colorectal Carcinoma)
Method in brief: as §1

[4] = test system: RPMI-6666 (Non-Cancerous)
Method in brief: as §1

NCI-H2461 (Mesothelioma) = test system: NCI-H2461 (Mesothelioma)
Method in brief: as §1

[5] = test system: MDA-MB-468 (Breast Carcinoma)
Method in brief: as §1

[6] = test system: PCI-30 (Head and Neck Carcinoma)
Method in brief: as §1

[7] = test system: HDLM-2 (Hodgkin's Lymphoma)
Method in brief: as §1

SH-4 (Melanoma) = test system: SH-4 (Melanoma)
Method in brief: as §1

[8] = test system: SK-OV-3 (Ovarian Carcinoma)
Method in brief: as §1

[9] = test system: LoVo (Colorectal Carcinoma)
Method in brief: as §1

HMV-II (Melanoma) = test system: HMV-II (Melanoma)
Method in brief: as §1

[10] = test system: HARA (Squamous Cell Lung Carcinoma)
Method in brief: as §1

[11] = test system: EN (Endometrial Carcinoma)
Method in brief: as §1

[12] = test system: LU-139 (Small Cell Lung Carcinoma)
Method in brief: as §1

[13] = test system: SW1271 (Small Cell Lung Carcinoma)
Method in brief: as §1

[14] = test system: RT-112 (Bladder Carcinoma)
Method in brief: as §1

[15] = test system: 8305C (Thyroid Gland Carcinoma)
Method in brief: as §1

[16] = test system: OC-314 (Ovarian Carcinoma)
Method in brief: as §1

[17] = test system: SU-DHL-6 (B-Cell Non-Hodgkin's Lymphoma)
Method in brief: as §1

SMILES	combination Emax [1]	combination Emax [2]	combination Emax [3]	combination Emax [4]	combination Emax (NCI-H2461 (Mesothelioma))	combination Emax [5]	combination Emax [6]	combination Emax [7]	combination Emax (SH-4 (Melanoma))	combination Emax [8]	combination Emax [9]	combination Emax (HMV-II (Melanoma))	combination Emax [10]	combination Emax [11]	combination Emax [12]	combination Emax [13]	combination Emax [14]	combination Emax [15]	combination Emax [16]	combination Emax [17]
Cc1c2c(nn1C)CSCc1cc(n(C)n1)CSc1cc(c3ccccc3c1)OCCCc1c(C(=O)O)n(C)c3c-2c(Cl)ccc13 [AZD5991] + CS(=O)(=O)CCNCc1ccc(-c2ccc3ncnc(Nc4ccc(OCc5cccc(F)c5)c(Cl)c4)c3c2)o1 [Lapatinib] (first compound max 1 µM, 7x7, partner max 10 µM)	0.261	0.529	0.455	0.555	0.332	0.851	0.257	0.961	0.197	0.347	0.491	0.64	0.786	0.519	0.201	0.424	0.827	0.346	0.506	1
Cc1c2c(nn1C)CSCc1cc(n(C)n1)CSc1cc(c3ccccc3c1)OCCCc1c(C(=O)O)n(C)c3c-2c(Cl)ccc13 [AZD5991] + Nc1ccn([C@@H]2O[C@H](CO)[C@@H](O)C2(F)F)c(=O)n1 [Gemcitabine] (first compound max 1 µM, 7x7, partner max 0.3 µM)	0.608	0.724	0.936	0.947	0.553	0.707	0.559	0.967	0.495	0.341	0.713	0.595	0.81	0.602	0.855	0.604	0.834	0.374	0.917	1
C[C@@H]1COCCN1c1cc(C2([S@](C)(=N)=O)CC2)nc(-c2ccnc3[nH]ccc23)n1 [AZD6738] + C1CC(C1)(C(=O)[O-])C(=O)[O-].N.N.[Pt+2] [Carboplatin] (first compound max 10 µM, 7x7, partner max 10 µM)	0.384	0.695	0.932	0.7	0.646	0.583	0.45	0.472	0.277	0.36	0.8	0.454	0.853	0.537	0.258	0.356	0.679	0.501	0.814	0.285
C[C@@H]1COCCN1c1cc(C2([S@](C)(=N)=O)CC2)nc(-c2ccnc3[nH]ccc23)n1 [AZD6738] + Nc1ccn([C@@H]2O[C@H](CO)[C@@H](O)C2(F)F)c(=O)n1 [Gemcitabine] (first compound max 10 µM, 7x7, partner max 0.3 µM)	0.684	0.819	0.954	0.936	0.714	0.767	0.795	0.77	0.623	0.625	0.846	0.724	0.927	0.66	0.841	0.7	0.936	0.721	0.993	0.945
N#Cc1cnc(Nc2cc(NC[C@H]3CNCCO3)c(C(F)(F)F)cn2)cn1 [SRA737] + Nc1ccn([C@@H]2O[C@H](CO)[C@@H](O)C2(F)F)c(=O)n1 [Gemcitabine] (first compound max 10 µM, 7x7, partner max 0.3 µM)	0.657	0.792	0.923	0.933	0.683	0.752	0.736	0.854	0.577	0.543	0.789	0.64	0.902	0.634	0.832	0.647	0.899	0.679	0.979	–
N#Cc1cnc(Nc2cc(NC[C@H]3CNCCO3)c(C(F)(F)F)cn2)cn1 [SRA737] + O=c1[nH]cc(F)c(=O)[nH]1 [5-Fluorouracil] (first compound max 10 µM, 7x7, partner max 20 µM)	0.349	0.565	0.656	0.901	0.526	0.344	0.226	0.645	0.383	–	0.652	0.303	0.89	0.483	0.356	0.156	0.712	0.392	0.902	0.748
